# Results published in patent US10294202B2, “Pyrrolidinones as herbicides” (FMC Corporation, priority 2013, dated 2019).
# Like-named read-outs stand apart in the source and are kept apart here.
# Columns and labels:
# pigweed [1] = assay: Test A pre-/postemergence herbicide test; type: in vivo, Amaranthus retroflexus
# How it was run: (§1)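 Directed soil spray to seeded pots (preemergence) or spray onto one- to two-leaf seedlings 2–10 cm tall (postemergence); loam/sand substrate throughout. Evaluated visually after about 10 days against untreated plants, 0 = no effect, 100 = complete control.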
# rice = assay: Test B flooded paddy test; type: in vivo, Oryza sativa; conditions: Flood, scale of 0 to 100 where 0 is no effect and 100 is complete control
# How it was run: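 Scoring: visual, compared with untreated controls, 0 = no effect through 100 = complete control, taken 13 to 15 days after treatment in the greenhouse. Compounds had been added to paddy water over soil flooded 3 cm deep at the plants' 2-leaf stage.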
# nutsedge, yellow = assay: Test C pre-/postemergence herbicide test; type: in vivo, Cyperus esculentus
# How it was run: (§2)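 Two application timings ran in parallel with identically formulated test chemicals (non-phytotoxic solvent, surfactant included): spray on seeded loam–sand soil, and spray on emerged plants 2 to 18 cm high. Evaluation at 13 to 15 days compared each species with controls, rated from 0 up to 100.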
# giant foxtail = assay: Test A pre-/postemergence herbicide test; type: in vivo, Setaria faberii
# How it was run: as §1
# waterhemp = assay: Test C pre-/postemergence herbicide test; type: in vivo, Amaranthus rudis
# How it was run: as §2
# pigweed [2] = assay: Test C pre-/postemergence herbicide test; type: in vivo, Amaranthus retroflexus
# How it was run: as §2
# ryegrass, Italian = assay: Test C pre-/postemergence herbicide test; type: in vivo, Lolium multiflorum
# How it was run: as §2
# galium = assay: Test C pre-/postemergence herbicide test; type: in vivo, Galium aparine
# How it was run: as §2
# corn = assay: Test A pre-/postemergence herbicide test; type: in vivo, Zea mays
# How it was run: as §1
# johnsongrass = assay: Test C pre-/postemergence herbicide test; type: in vivo, Sorghum halepense
# How it was run: as §2
# ragweed = assay: Test C pre-/postemergence herbicide test; type: in vivo, Ambrosia elatior
# How it was run: as §2
# [3] = Postemergence, 500 g ai/ha, 0 to 100 scale (0 no effect, 100 complete control)
# [4] = Preemergence, 125 g ai/ha, 0 to 100 scale where 0 is no effect and 100 is complete control
# [5] = preemergence, 500 g ai/ha, 0 to 100 scale, 0 is no effect and 100 is complete control
# [6] = Preemergence, 31 g ai/ha, scale 0 to 100, 0 is no effect and 100 is complete control
# [7] = Preemergence, 62 g ai/ha, scale 0 to 100 (0 no effect, 100 complete control)
# [8] = Preemergence, 125 g ai/ha, scale 0 to 100 (0 no effect, 100 complete control)
# [9] = Postemergence, 125 g ai/ha, 0 to 100 scale, 0 is no effect, 100 is complete control
# [10] = Preemergence, 125 g ai/ha, visual rating on 0 to 100 scale (0 no effect, 100 complete control)
# [11] = Postemergence, 31 g ai/ha, scale 0 (no effect) to 100 (complete control)
# [12] = Postemergence, 62 g ai/ha, scale 0 to 100 (0 no effect, 100 complete control)
# [13] = Postemergence, 125 g ai/ha, scale 0 to 100 (0 no effect, 100 complete control)
# [14] = Postemergence, 250 g ai/ha, scale 0 to 100 (0 no effect, 100 complete control)
# [15] = Preemergence, 62 g ai/ha, scale 0 to 100
smiles,measurement,setting,value
O=C1NCC(c2cc(F)cc(F)c2)C1C(=O)Nc1ccccc1Cl (racemic) [Compound 280],"Plant response rating, Pigweed","pigweed [1]; Postemergence, 125 g ai/ha, visual rating on 0 to 100 scale (0 no effect, 100 complete control), approx. 10 days",0
same,"Plant response rating, Pigweed",pigweed [1]; [3],0
same,"Plant response rating, Pigweed",pigweed [1]; [4],0
same,"Plant response rating, Pigweed",pigweed [1]; [5],0
same,"Plant response rating, Rice",rice; 500 g ai/ha,0
same,"Nutsedge, Yellow plant response rating","nutsedge, yellow; [6]",0
same,"Nutsedge, Yellow plant response rating","nutsedge, yellow; [7]",0
same,"Plant response rating, Nutsedge, Yellow","nutsedge, yellow; [8]",0
same,"Plant response rating (scale of 0 to 100), Nutsedge, Yellow","nutsedge, yellow; Preemergence, 250 g ai/ha",100
same,"Plant response rating, Foxtail, Giant",giant foxtail; [9],70
same,"Plant response rating, Foxtail, Giant",giant foxtail; [3],80
same,"Plant response rating, Foxtail, Giant",giant foxtail; [4],90
same,"Plant response rating, Foxtail, Giant",giant foxtail; [5],90
same,Waterhemp plant response rating,waterhemp; [6],0
same,Waterhemp plant response rating,waterhemp; [7],65
same,"Plant response rating, Waterhemp",waterhemp; [8],75
same,"Plant response rating (scale of 0 to 100), Waterhemp","waterhemp; Preemergence, 250 g ai/ha",35
same,Pigweed plant response rating,pigweed [2]; [6],10
same,Pigweed plant response rating,pigweed [2]; [7],0
same,"Plant response rating, Pigweed",pigweed [2]; [8],20
same,"Plant response rating (scale of 0 to 100), Pigweed","pigweed [2]; Preemergence, 250 g ai/ha",20
same,"Ryegrass, Italian plant response rating","ryegrass, Italian; [6]",0
same,"Ryegrass, Italian plant response rating","ryegrass, Italian; [7]",0
same,"Plant response rating, Ryegrass, Italian","ryegrass, Italian; [8]",0
same,"Plant response rating (scale of 0 to 100), Ryegrass, Italian","ryegrass, Italian; Preemergence, 250 g ai/ha",5
same,Galium plant response rating,galium; [6],0
same,Galium plant response rating,galium; [7],0
same,"Plant response rating, Galium",galium; [8],0
same,"Plant response rating (scale of 0 to 100), Galium","galium; Preemergence, 250 g ai/ha",85
same,"Plant response rating, Corn",corn; [9],0
same,"Plant response rating, Corn",corn; [3],0
same,Johnsongrass plant response rating,johnsongrass; [6],0
same,Johnsongrass plant response rating,johnsongrass; [7],0
same,"Plant response rating, Johnsongrass",johnsongrass; [8],10
same,"Plant response rating (scale of 0 to 100), Johnsongrass","johnsongrass; Preemergence, 250 g ai/ha",10
same,Ragweed plant response rating,ragweed; [6],0
same,Ragweed plant response rating,ragweed; [7],0
same,"Plant response rating, Ragweed",ragweed; [8],0
same,"Plant response rating (scale of 0 to 100), Ragweed","ragweed; Preemergence, 250 g ai/ha",60
"O=C1NCC(c2ccc(C(F)(F)F)cc2)C1C(=O)Nc1cccc(F)c1F (centres unmarked) [Compound 80, N-(2,3-difluorophenyl)-2-oxo-4-[4-(trifluoromethyl)phenyl]-3-pyrrolidinecarboxamide]",pest or weed control at 125 g/ha,"pigweed [1]; Amaranthus retroflexus, post-emergence, 240 h, Postemergence, 125 g ai/ha, 0 to 100 scale, 0 no effect, 100 complete control, read-out: Plant response rating, Pigweed",60%
same,pest or weed control at 500 g/ha,"pigweed [1]; Amaranthus retroflexus, post-emergence, 240 h, Postemergence, 500 g ai/ha, 0 to 100 scale (0 no effect, 100 complete control), read-out: Plant response rating, Pigweed",70%
same,pest or weed control at 500 g/ha,"pigweed [1]; Amaranthus retroflexus, pre-emergence, 240 h, preemergence, 500 g ai/ha, 0 to 100 scale, read-out: Plant response rating, Pigweed",80%
same,Pigweed plant response rating,pigweed [1]; [10],60
same,"Plant response rating, Rice",rice; 250 g ai/ha,0
same,"Plant response rating, Nutsedge, Yellow","nutsedge, yellow; [11]",0
same,"Plant response rating, Nutsedge, Yellow","nutsedge, yellow; [12]",0
same,"Plant response rating, Nutsedge, Yellow","nutsedge, yellow; [13]",0
same,"Plant response rating, Nutsedge, Yellow","nutsedge, yellow; [14]",0
same,"Nutsedge, Yellow plant response rating","nutsedge, yellow; [6]",0
same,"Plant response rating, Nutsedge, Yellow","nutsedge, yellow; [15]",0
same,"Plant response rating, Nutsedge, Yellow","nutsedge, yellow; [8]",0
same,"Plant response rating (scale of 0 to 100), Nutsedge, Yellow","nutsedge, yellow; Preemergence, 250 g ai/ha",10
same,"Foxtail, Giant plant response rating",giant foxtail; [10],90
same,pest or weed control at 125 g/ha,"giant foxtail; Setaria faberi, post-emergence, 240 h, Postemergence, 125 g ai/ha, 0 to 100 scale, 0 no effect, 100 complete control, read-out: Plant response rating, Foxtail, Giant",80%
same,pest or weed control at 500 g/ha,"giant foxtail; Setaria faberi, post-emergence, 240 h, Postemergence, 500 g ai/ha, 0 to 100 scale (0 no effect, 100 complete control), read-out: Plant response rating, Foxtail, Giant",80%
same,pest or weed control at 500 g/ha,"giant foxtail; Setaria faberi, pre-emergence, 240 h, preemergence, 500 g ai/ha, 0 to 100 scale, read-out: Plant response rating, Foxtail, Giant",90%
same,"Plant response rating, Waterhemp",waterhemp; [11],30
same,"Plant response rating, Waterhemp",waterhemp; [12],45
same,"Plant response rating, Waterhemp",waterhemp; [13],45
same,"Plant response rating, Waterhemp",waterhemp; [14],65
same,Waterhemp plant response rating,waterhemp; [6],15
same,"Plant response rating, Waterhemp",waterhemp; [15],80
same,"Plant response rating, Waterhemp",waterhemp; [8],90
same,"Plant response rating (scale of 0 to 100), Waterhemp","waterhemp; Preemergence, 250 g ai/ha",90
same,"Plant response rating, Pigweed",pigweed [2]; [11],40
same,"Plant response rating, Pigweed",pigweed [2]; [12],40
same,"Plant response rating, Pigweed",pigweed [2]; [13],60
same,"Plant response rating, Pigweed",pigweed [2]; [14],75
same,Pigweed plant response rating,pigweed [2]; [6],75
same,"Plant response rating, Pigweed",pigweed [2]; [15],90
same,"Plant response rating, Pigweed",pigweed [2]; [8],90
same,"Plant response rating (scale of 0 to 100), Pigweed","pigweed [2]; Preemergence, 250 g ai/ha",90
same,"Plant response rating, Ryegrass, Italian","ryegrass, Italian; [11]",0
same,"Plant response rating, Ryegrass, Italian","ryegrass, Italian; [12]",0
same,"Plant response rating, Ryegrass, Italian","ryegrass, Italian; [13]",0
same,"Plant response rating, Ryegrass, Italian","ryegrass, Italian; [14]",0
same,"Ryegrass, Italian plant response rating","ryegrass, Italian; [6]",0
same,"Plant response rating, Ryegrass, Italian","ryegrass, Italian; [15]",40
same,"Plant response rating, Ryegrass, Italian","ryegrass, Italian; [8]",40
same,"Plant response rating (scale of 0 to 100), Ryegrass, Italian","ryegrass, Italian; Preemergence, 250 g ai/ha",45
same,"Plant response rating, Galium",galium; [11],5
same,"Plant response rating, Galium",galium; [12],55
same,"Plant response rating, Galium",galium; [13],65
same,"Plant response rating, Galium",galium; [14],65
same,Galium plant response rating,galium; [6],5
same,"Plant response rating, Galium",galium; [15],90
same,"Plant response rating, Galium",galium; [8],90
same,"Plant response rating (scale of 0 to 100), Galium","galium; Preemergence, 250 g ai/ha",90
same,Corn plant response rating,corn; [10],0
same,"Corn plant response rating (crop injury, 0 = no effect, 100 = complete kill) at 125 g/ha","corn; Zea mays, post-emergence, 240 h, Postemergence, 125 g ai/ha, 0 to 100 scale, 0 no effect, 100 complete control",30%
same,"Corn plant response rating (crop injury, 0 = no effect, 100 = complete kill) at 500 g/ha","corn; Zea mays, post-emergence, 240 h, Postemergence, 500 g ai/ha, 0 to 100 scale (0 no effect, 100 complete control)",60%
same,"Corn plant response rating (crop injury, 0 = no effect, 100 = complete kill) at 500 g/ha","corn; Zea mays, pre-emergence, 240 h, preemergence, 500 g ai/ha, 0 to 100 scale",0%
same,"Plant response rating, Johnsongrass",johnsongrass; [11],5
same,"Plant response rating, Johnsongrass",johnsongrass; [12],5
same,"Plant response rating, Johnsongrass",johnsongrass; [13],5
same,"Plant response rating, Johnsongrass",johnsongrass; [14],10
same,Johnsongrass plant response rating,johnsongrass; [6],0
same,"Plant response rating, Johnsongrass",johnsongrass; [15],0
same,"Plant response rating, Johnsongrass",johnsongrass; [8],30
same,"Plant response rating (scale of 0 to 100), Johnsongrass","johnsongrass; Preemergence, 250 g ai/ha",55
same,"Plant response rating, Ragweed",ragweed; [11],30
same,"Plant response rating, Ragweed",ragweed; [12],30
same,"Plant response rating, Ragweed",ragweed; [13],30
same,"Plant response rating, Ragweed",ragweed; [14],30
